Holding throughout (assay): NCI tumour cell line growth inhibition, 48 h
For assay [1], the system named is HOP-92 NSCLC.
Assay [2] has as its system PC-3 prostate.
Assay [3] concerns UACC-62 melanoma.
In assay [4] the test system is MOLT-4 leukemia.
Assay [5] relates to RPMI-8226 leukemia.
Assay [6] relates to MDA-MB-231 breast.
The test system of assay [7] is ACHN renal.
Assay [8] concerns MDA-MB-435.
For assay [9], the system named is NCI-H460 lung.
The test system of assay [10] is U251 CNS.
The subject of assay [11] is 786-0 renal.
Assay [12] relates to EKVX NSCLC.
For assay [13], the system named is HCC-2998 colon.
For assay [14], the system named is SW-620 colon.
For assay [15], the system named is HOP-62 NSCLC.
In assay [16] the test system is LOX IMVI melanoma.
The test system of assay [17] is SNB-75 CNS.
Assay [18] relates to HCT-15 colon.
The subject of assay [19] is SN12C renal.
Assay [20] concerns SR leukemia.

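The compound was tested at five concentrations on cells cultured in 96-well plates, with a 48-hour exposure period. TGI: total growth inhibition.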

For `O=C(O)CC1OCC=C2CN3CCC45C6=CC(=O)C(=O)C([N+](=O)[O-])=C6NC4C1C2CC35` (centres undefined), the TGI in assay [1], in [2], in assay [3], in [4], in assay [5] and in assay [6] was more than 100 µM in each case. For the same compound, the TGI in assay [7] was more than 100 µM; in [8], 31.3 µM; in [9], more than 100 µM; in assay [10] it was more than 100 µM; in assay [11], more than 100 µM; in assay [12], more than 100 µM. Besides, the TGI in assay [13], in assay [14], in [15], in [16], in assay [17] and in assay [18] was more than 100 µM in each case. In assay [19], this compound had a TGI of more than 100 µM.
As to `CCOP(=O)(CN=C(c1ccccc1)c1ccccc1)OCC`, the TGI in assay [1], in assay [2], in assay [4], in [5], in assay [6] and in assay [7] was more than 100 µM throughout. The TGI in assay [8], in assay [9], in [10], in [13], in assay [14] and in [20] was more than 100 µM throughout. The TGI in assay [15], in [16], in assay [17], in [18] and in [19] was more than 100 µM in each case.
`CCCCCC[C@H]1C(=O)O[C@H](C)[C@H](NC(=O)c2cccc(NC=O)c2OC)C(=O)O[C@@H](C)[C@@H]1OC(=O)CC(C)C` (tested in a mixture with another compound): the TGI in assay [1] was 81.2 µM; in assay [2], more than 100 µM; in [3], more than 100 µM; in assay [4] it was more than 100 µM; in [5], more than 100 µM; in [6], 91.7 µM. The TGI in [7] was 49.2 µM; in [8], more than 100 µM; in assay [9], more than 100 µM; in assay [10] it was 34.1 µM; in assay [11] it was more than 100 µM; in assay [12] it was more than 100 µM. The TGI in assay [13] was more than 100 µM; in assay [14] it was more than 100 µM; in assay [20], 36 µM; in [15], more than 100 µM; in assay [16] it was more than 100 µM; in assay [18], more than 100 µM. The compound also came in with a TGI in assay [19] of more than 100 µM.
Regarding `CCSc1nc(=[N+]2CCCC2)ss1`, the TGI in [1] is more than 100 µM; in assay [2] it was more than 100 µM; in [3] it was 23.9 µM; in assay [4], 30 µM; in [5] it was 22.8 µM; in [6] it was more than 100 µM. Also, the TGI in assay [7] was more than 100 µM; in [8], 42.5 µM; in assay [9], more than 100 µM; in [10], more than 100 µM; in [11] it was more than 87 µM; in [12], more than 100 µM. Besides, the TGI in assay [13] is more than 100 µM; in [14], more than 100 µM; in [15] it was more than 100 µM; in assay [16], 55.2 µM; in [17], more than 96.6 µM; in assay [18], more than 92.8 µM. The TGI in [19] is more than 100 µM.
Take `O=C1OCC/C1=C/c1ccc(N=Nc2c(O)ccc3ccccc23)cc1`: the TGI was 47.3 µM in assay [1]; 49.6 µM in assay [2]; 56.5 µM in assay [3]; 51.1 µM in [4]; 53.8 µM in [5]; more than 100 µM in assay [6]. Also, the TGI in [7] stood at 31.8 µM; in assay [8] it was 56.5 µM; in assay [9], 47.3 µM; in assay [10], 39.2 µM; in assay [11], 36.6 µM; in assay [12], 41.8 µM. Moreover, the TGI in [13] is 39.7 µM; in assay [14], 40 µM; in assay [20] it was 37.5 µM; in [15], 45.8 µM; in assay [17], 49.2 µM; in assay [18], 60.7 µM. Moreover, in [19], the TGI stood at 45.1 µM.
In the case of `O=C(NN1C(=O)CSC1c1ccc(C(F)(F)F)cc1)c1ccncc1` (centres undefined), the TGI in assay [1], in assay [3], in assay [4], in assay [5], in [9] and in assay [10] was more than 100 µM in each case. The TGI in assay [12], in assay [13], in assay [14], in assay [15], in [16] and in assay [17] was more than 100 µM throughout. For the same compound, the TGI in assay [18] and in assay [19] was more than 100 µM each time.
As to `O=S(=O)(O)c1ccc2c(N=Nc3ccc(F)cc3)c(O)c(S(=O)(=O)O)cc2c1`, the TGI in assay [1], in assay [2], in assay [3], in [4], in [5] and in assay [6] was more than 100 µM throughout. For the same compound, the TGI in assay [7], in assay [8], in assay [10], in assay [11], in assay [12] and in [14] was more than 100 µM throughout. For the same compound, the TGI in assay [20], in assay [15], in assay [16], in [17], in assay [18] and in [19] was more than 100 µM in each case.
Turning to `Nc1nc(N)c2[nH]cnc2n1` (tested in a mixture with another compound), the TGI in assay [1] was more than 100 µM; in [2], 94.6 µM; in assay [3], 24.9 µM; in assay [4], more than 100 µM; in assay [5], more than 100 µM; in assay [6], more than 100 µM. Besides, the TGI in assay [7] is 48.6 µM; in assay [8] it was 77.5 µM; in assay [9], 63.4 µM; in assay [10], more than 100 µM; in assay [11], more than 100 µM; in assay [12] it was 60.1 µM. The TGI in assay [14], in assay [20], in assay [15], in assay [16], in [17] and in assay [18] was more than 100 µM each time. The same compound yielded a TGI in assay [19] of more than 100 µM.
Take `Cc1cc2nc(-c3c(F)cccc3F)n(Cc3c(F)cccc3F)c2cc1C`: the TGI was determined as 30 µM in [1]; 40.6 µM in assay [2]; 33.8 µM in assay [4]; 24 µM in assay [5]; 31 µM in [6]; 35.4 µM in assay [7]. The TGI in [8] is 32.8 µM; in [9] it was 49.7 µM; in [10], 24.1 µM; in [11], 31.8 µM; in assay [12], 22.7 µM; in assay [13], 21.4 µM. Moreover, the TGI in [14] is 35 µM; in [20], 30.4 µM; in [15], 28.7 µM; in assay [16], 27.4 µM; in assay [17], 26.1 µM; in assay [18] it was 27.6 µM. The compound further displayed a TGI in assay [19] of 33.5 µM.
For the compound `Cc1ccc(Nc2nc(NS(=O)(=O)c3cc(C(=O)Nc4ccc(Cl)cc4)c(Cl)cc3S)n[nH]2)cc1`, the TGI in assay [2], in [3], in [4], in assay [5], in assay [6] and in [7] was more than 100 µM throughout. Besides, the TGI in assay [8], in assay [9], in [10], in [12], in [14] and in assay [20] was more than 100 µM throughout. Besides, the TGI in [15], in assay [16], in assay [17], in assay [18] and in assay [19] was more than 100 µM each time.
For `Cc1ccc2c(C)c3ccc4ccccc4c3c[n+]2c1`, the TGI in [1] is 52.7 µM; in assay [3], 27.4 µM; in [4], 45.9 µM; in assay [5] it was 64.8 µM; in [7], more than 100 µM; in [9] it was 35.2 µM. Moreover, the TGI in [10] was 23 µM; in assay [11], 80.3 µM; in [12], more than 100 µM; in assay [13], 28.6 µM; in assay [14], more than 82.1 µM; in [20], 42.8 µM. Also, the TGI is 51.2 µM in assay [15]; 99.8 µM in assay [16]; 25.9 µM in assay [17]; more than 100 µM in [18]; 24 µM in [19].
With `Clc1nc(NCCc2ccccc2)c2ncn(-c3ccccc3)c2n1`, the TGI in assay [2] was 47.8 µM; in [3], 56.7 µM; in assay [4] it was 51 µM; in assay [5], 47.3 µM; in assay [6], 62.8 µM; in assay [7], 92.7 µM. Further, the TGI was found to be 35.1 µM in [8]; 33.7 µM in [9]; 48.6 µM in [10]; 31.4 µM in [11]; 68.3 µM in [12]; 45.5 µM in assay [13]. The TGI in [14] was more than 100 µM; in assay [15] it was 67.2 µM; in assay [16], 43.1 µM; in assay [17], 90.4 µM; in assay [18], more than 100 µM; in [19] it was 85.4 µM.
Turning to `CC1OC1C(=O)C1(O)C(C)C(O)C23OC2(C(O)c2c(O)cccc2C3=O)C1O` (centres undefined), the TGI in assay [1] was determined as 0.0971 µM; in assay [3], 0.646 µM; in [4], 0.495 µM; in [5], 0.73 µM; in assay [9], 0.565 µM; in [10], 1.09 µM. The TGI was 0.541 µM in assay [12]; 0.401 µM in assay [13]; 1.21 µM in assay [14]; 0.462 µM in [15]; 0.629 µM in assay [16]; 0.747 µM in assay [17]. For the same compound, the TGI in [18] was determined as 0.926 µM; in assay [19], 0.343 µM.
As to `CC(c1ccccc1)/[N+]([O-])=C/c1ccccc1` (centres undefined), the TGI in assay [1], in assay [4], in assay [5], in assay [7], in assay [9] and in assay [10] was more than 100 µM each time. Further, the TGI in assay [12], in assay [13], in assay [14], in assay [15], in assay [16] and in assay [17] was more than 100 µM throughout.
As to `COc1cc2c(cc1OC)C(C)N(C)c1c-2c(OC(C)=O)cc2cc(OC)c(OC)cc12` (centres undefined), the TGI in assay [2] was more than 90.8 µM; in assay [3], 39.3 µM; in [4] it was more than 100 µM; in [5], more than 59 µM; in [6], 27.9 µM; in assay [7], 97 µM. Besides, the TGI in assay [8] was 35.6 µM; in assay [9] it was 27.6 µM; in assay [10], more than 68.5 µM; in [11] it was 62 µM; in assay [12], 61.9 µM; in assay [13], more than 60.1 µM. For the same compound, the TGI in [14] is more than 78.2 µM; in [15], more than 79.7 µM; in assay [16] it was 39.8 µM; in [17], more than 79 µM; in assay [18] it was more than 81.2 µM; in assay [19], more than 46.2 µM.

The values above are taken from PubChem BioAssay (NCI).
